Residues, ends and D or L forms follow the SMILES beside them. *: point of attachment. Boc = CC(C)(C)OC(=O)*
Experiments:
Assay type in all cases: biochemical
Factor VIIa:rTF complex = biological target: T1, Factor VIIa:rTF complex (Homo sapiens, UniProt P08709); experiment: Factor VIIa assay (S-2288 substrate); conditions: for Calculated % Selectivity VIIa: [IC50 for Trypsin/IC50 for other enzyme]×100, lower = more trypsin selective
T1 construct: 2.5 ml 400 nMhuman Factor VIIa
Description: (§1) The specificity of the peptide aldehydes (8 through 12) was determined in vitro by measurement of their IC50 against other enzymes involved in hemostasis. A specific concentration of enzyme and its substrate were challenged with varying concentrations of inhibitor. IC50 is that concentration of inhibitor giving 50% inhibition of substrate turnover, under the assay conditions. Specific assay procedures used are presented below.
(§2) 96-well microtiter plates were prepared for use in these assays by incubating each well with 300 μL 1% bovine serum albumin (in deionized water) for 30 minutes at 37° C., then washing three times with deionized water.
Enzyme activity was determined using as substrate, S-2288 [D-isoleucyl-L-prolyl-L-arginine-p-nitroanilide dihydrochloride], purchased from Kabi Diagnostica. The substrate was made up in deionized water prior to use.
Both solutions were then incubated for 30 minutes at room temperature before use in the assay.
(§3) The assay was run by combining in appropriate wells 50 μL inhibitor in TBS or TBS alone and 100 μL of Factor VIIa:rTF complex or background control, incubating this mixture for 30 minutes at room temperature, adding 50 μL of 2 mM S-2288, incubating for an additional 30 to 60 minutes at room temperature, then reading the absorbance of the wells at 405 nm on a microtiter plate reader set with background substraction at 650 nm.

[1] = biological target: recombinant tissue plasminogen activator (Homo sapiens, UniProt P00750); experiment: Tissue plasminogen activator assay (S-2288 substrate); conditions: for Calculated % Selectivity tPA: [IC50 for Trypsin/IC50 for other enzyme]×100, lower = more trypsin selective
Chain of recombinant tissue plasminogen activator (P00750 36-562): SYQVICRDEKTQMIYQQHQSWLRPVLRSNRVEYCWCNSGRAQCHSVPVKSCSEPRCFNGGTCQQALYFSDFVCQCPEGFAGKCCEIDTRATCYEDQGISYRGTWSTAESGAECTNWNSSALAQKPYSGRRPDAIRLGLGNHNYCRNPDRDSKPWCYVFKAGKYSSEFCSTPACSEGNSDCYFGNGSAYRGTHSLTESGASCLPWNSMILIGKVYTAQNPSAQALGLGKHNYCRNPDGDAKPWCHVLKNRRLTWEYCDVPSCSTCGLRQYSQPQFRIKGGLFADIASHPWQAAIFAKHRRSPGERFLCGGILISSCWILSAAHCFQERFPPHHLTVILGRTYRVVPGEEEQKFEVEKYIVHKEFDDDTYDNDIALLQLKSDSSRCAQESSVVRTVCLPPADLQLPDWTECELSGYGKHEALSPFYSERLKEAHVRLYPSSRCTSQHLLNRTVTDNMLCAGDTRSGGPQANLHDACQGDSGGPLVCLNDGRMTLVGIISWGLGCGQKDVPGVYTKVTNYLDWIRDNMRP
Description: as §1, with “IC50 is that concentration of inhibitor giving 50% inhibition of substrate turnover, under the assay conditions.” left out
as §2
(§4) The substrate was made up in deionized water prior to use.

[2] = biological target: bovine and human pancreatic trypsin; experiment: Potency: determination of inhibitor constant Ki against trypsin (S-2222 substrate, Dixon plot); conditions: 37° C., TBS pH 7.4, 15 min preincubation, read-out: Ki For Peptide Aldehydes Against Trypsin
Description: The potency and specificity of the compounds of the present invention are determined by in vitro assay methods well known in the art. […] Specifically, the inhibitor constant, Ki, of the compounds can be determined by the method of Dixon, Biochem. J. 55:170 (1953). The specificity is assessed by determination of the concentration, IC50, of compound required to give 50% inhibition of the enzymatic activity of the coagulation enzymes, kallikrein, factor XIa, factor VIIa, factor Xa, thrombin; the fibrinolysis enzymes, plasmin, tissue plasminogen activator (tPA), and urokinase (UK), and the anticoagulation enzyme, protein C. Specificity is found when the concentration of compound giving 50% inhibition of trypsin is low relative to the concentration required to give like inhibition of the other enzymes.
Enzyme activity was determined using as substrate S-2222 [N-benzoyl-L-isoleucyl-L-glutamyl-glycyl-L-arginine-p-nitroanilide hydrochloride where glutamyl side chain is 50% carboxylic acid and 50% methyl ester], purchased from Kabi Diagnostica. The substrate was made up in deionized water prior to use.
A 96-well microtiter plate was prepared for use in the assay by incubating each well with 300 μL of 1% bovine serum albumin (in deionized water) for 30 minutes at 37° C., and washing three times with deionized water.
To each well was added 50 μL TBS (0.1M Tris, 0.14M NaCl, pH 7.4), 50 μL 2.5 nM trypsin and 50 μL peptide aldehyde in TBS or TBS alone. After incubating for 15 minutes at 37° C., 50 μL of S-2222 (at 37° C.) at a specified concentration was added to each well. After mixing, the rate of substramte turnover at 37° C. was measured for 30 minutes at 405 nm (generation of p-nitroaniline). The initial S-2222 concentrations in the assay mixture were 0.45, 0.23, 0.11, 0.056, and 0.028 mM.
Ki was determined graphically using a Dixon plot, as described in Dixon, Biochem. J. 55:170 (1953).

human urokinase = biological target: T2, human urokinase (Homo sapiens, UniProt P00749); experiment: Urokinase assay (S-2444 substrate); conditions: for IC50: 30 min preincubation, room temperature, tested 0.025-25 μM, Inact. = no inhibition at highest concentration; for Calculated % Selectivity UK: [IC50 for Trypsin/IC50 for other enzyme]×100, lower = more trypsin selective
T2 construct: 50 μL of 270 U/mL human urokinase
Description: as §1, §2
Enzyme activity was determined using as substrate S-2444 [L-pyroglutamyl-L-glycyl-L-arginine-p-nitroanilide hydrochloride], purchased from Kabi Diagnostica. The substrate was made up in deionized water prior to use.
as §3, with “50” for “100”, “270 U/mL human urokinase (or TBS as” for “Factor VIIa:rTF complex or”, “control) and 50 μL TBS,” for “control,”, “1” for “of 2”, “S-2444,” for “S-2288,”, “30” for “30 to 60”

plasmin = plasmin (Homo sapiens, UniProt P00747); experiment: Plasmin assay (S-2251 substrate); parameters: 50 μL 25 nM human plasmin; conditions: for IC50: 30 min preincubation, room temperature, tested 0.025-25 μM, Inact. = no inhibition at highest concentration; for Calculated % Selectivity Plasmin: [IC50 for Trypsin/IC50 for other enzyme]×100, lower = more trypsin selective
Chain of plasmin (P00747 581-810 limits assumed): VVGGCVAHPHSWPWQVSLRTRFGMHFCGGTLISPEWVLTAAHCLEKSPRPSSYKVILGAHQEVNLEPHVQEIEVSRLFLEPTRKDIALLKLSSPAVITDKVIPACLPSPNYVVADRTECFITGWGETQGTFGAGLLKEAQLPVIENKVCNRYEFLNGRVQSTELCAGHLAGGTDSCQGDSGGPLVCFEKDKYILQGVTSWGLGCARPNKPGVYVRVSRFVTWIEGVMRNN
Chain of plasmin (P00747 97-580 partner limits assumed): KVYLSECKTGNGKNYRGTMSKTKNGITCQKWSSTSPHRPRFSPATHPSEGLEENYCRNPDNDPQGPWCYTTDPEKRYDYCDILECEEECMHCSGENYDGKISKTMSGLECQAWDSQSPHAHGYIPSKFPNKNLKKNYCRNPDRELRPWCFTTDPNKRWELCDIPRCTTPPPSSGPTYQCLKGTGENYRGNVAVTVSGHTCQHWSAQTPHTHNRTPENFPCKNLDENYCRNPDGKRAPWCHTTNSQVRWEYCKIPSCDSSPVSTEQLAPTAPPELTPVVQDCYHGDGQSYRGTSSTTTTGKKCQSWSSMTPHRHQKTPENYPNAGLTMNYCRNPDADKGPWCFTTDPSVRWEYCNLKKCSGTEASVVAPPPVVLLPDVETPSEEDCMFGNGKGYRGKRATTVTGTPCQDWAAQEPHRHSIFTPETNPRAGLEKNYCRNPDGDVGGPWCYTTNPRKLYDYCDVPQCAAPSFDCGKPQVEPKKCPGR
Description: as §1, with “IC50 is that concentration of inhibitor giving 50% inhibition of substrate turnover, under the assay conditions.” left out
as §2, §4

human Factor XIa = biological target: T3, human Factor XIa (Homo sapiens, UniProt P03951); experiment: Factor XIa assay (S-2366 substrate); conditions: for IC50: 30 min preincubation, room temperature, tested 0.025-25 μM, Inact. = no inhibition at highest concentration; for Calculated % Selectivity XIa: [IC50 for Trypsin/IC50 for other enzyme]×100, lower = more trypsin selective
T3 construct: 50 μL of 5 nM human Factor XIa
T3 sequence (P03951 388-625 limits assumed): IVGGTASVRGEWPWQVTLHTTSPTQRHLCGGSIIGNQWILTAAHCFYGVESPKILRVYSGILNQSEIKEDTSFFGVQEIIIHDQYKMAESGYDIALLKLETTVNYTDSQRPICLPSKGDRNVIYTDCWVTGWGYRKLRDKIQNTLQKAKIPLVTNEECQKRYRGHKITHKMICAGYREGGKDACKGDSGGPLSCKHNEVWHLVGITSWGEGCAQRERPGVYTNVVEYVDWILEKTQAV
T3 sequence (P03951 19-387 partner limits assumed): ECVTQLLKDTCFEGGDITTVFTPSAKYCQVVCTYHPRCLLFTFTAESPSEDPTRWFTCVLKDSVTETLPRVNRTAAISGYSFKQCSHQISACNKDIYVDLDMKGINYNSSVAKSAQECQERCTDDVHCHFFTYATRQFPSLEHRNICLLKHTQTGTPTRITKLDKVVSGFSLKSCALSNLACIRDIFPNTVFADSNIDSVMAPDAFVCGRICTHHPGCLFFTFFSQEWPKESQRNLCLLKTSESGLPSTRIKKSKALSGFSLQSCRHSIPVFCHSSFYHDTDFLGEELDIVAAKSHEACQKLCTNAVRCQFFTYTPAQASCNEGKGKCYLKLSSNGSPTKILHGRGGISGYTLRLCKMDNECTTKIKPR
Description: as §1, with “IC50 is that concentration of inhibitor giving 50% inhibition of substrate turnover, under the assay conditions.” left out
as §2, §4

bovine trypsin = biological target: T4, bovine trypsin (Bos taurus, UniProt P00760); experiment: Trypsin assay, IC50 (S-2222 substrate); conditions: for IC50: 30 min preincubation, room temperature, tested 0.025-25 μM; for Calculated % Selectivity Trypsin: trypsin relative to itself (reference, 100 by definition)
T4 sequence (P00760 24-246): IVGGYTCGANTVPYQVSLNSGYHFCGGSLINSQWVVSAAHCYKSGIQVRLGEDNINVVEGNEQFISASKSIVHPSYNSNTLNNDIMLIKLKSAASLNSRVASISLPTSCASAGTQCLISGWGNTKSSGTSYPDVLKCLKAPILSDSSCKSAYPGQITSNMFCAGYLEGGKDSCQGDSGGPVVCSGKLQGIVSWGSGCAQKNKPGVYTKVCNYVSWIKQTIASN
Description: as §1, with “IC50 is that concentration of inhibitor giving 50% inhibition of substrate turnover, under the assay conditions.” left out
as §2, §4

[3] = biological target: T5, Activated human Protein C (Homo sapiens, UniProt P04070); experiment: Protein C assay (Pefachrome PC substrate); conditions: for Calculated % Selectivity Protein C: [IC50 for Trypsin/IC50 for other enzyme]×100, lower = more trypsin selective
T5 construct: from tissue
T5 sequence (P04070 212-461 limits assumed): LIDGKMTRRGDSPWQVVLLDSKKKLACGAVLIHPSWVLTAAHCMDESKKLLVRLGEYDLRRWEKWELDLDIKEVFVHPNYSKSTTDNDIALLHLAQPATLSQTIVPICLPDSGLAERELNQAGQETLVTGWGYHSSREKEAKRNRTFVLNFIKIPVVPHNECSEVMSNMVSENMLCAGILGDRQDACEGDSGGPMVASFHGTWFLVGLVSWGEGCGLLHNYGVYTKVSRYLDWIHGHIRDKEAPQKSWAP
T5 sequence (P04070 43-197 partner limits assumed): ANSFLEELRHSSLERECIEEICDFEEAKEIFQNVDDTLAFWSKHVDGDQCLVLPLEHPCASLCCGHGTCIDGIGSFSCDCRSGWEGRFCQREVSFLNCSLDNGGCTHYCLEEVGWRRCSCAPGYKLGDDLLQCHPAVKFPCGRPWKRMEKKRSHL
Description: as §1, with “IC50 is that concentration of inhibitor giving 50% inhibition of substrate turnover, under the assay conditions.” left out
as §2
Enzyme activity was determined using as substrate, Pefachrome PC [δ-carbobenzoloxy-D-lysyl-L-prolyl-L-arginine-p-nitroanilide], purchased from Centerchem, Inc. The substrate was made up in deionized water prior to use. Protac used to activate Protein C was obtained from American Diagnostics.

human kallekrein = biological target: T6, human kallekrein (Homo sapiens, UniProt P03952); experiment: Kallikrein assay (S-2302 substrate); conditions: for IC50: 30 min preincubation, room temperature, tested 0.025-25 μM, Inact. = no inhibition at highest concentration; for Calculated % Selectivity Kallikrein: [IC50 for Trypsin/IC50 for other enzyme]×100, lower = more trypsin selective
T6 construct: 50 μL of 4 to 9 nM human kallekrein
T6 sequence (P03952 391-638 limits assumed): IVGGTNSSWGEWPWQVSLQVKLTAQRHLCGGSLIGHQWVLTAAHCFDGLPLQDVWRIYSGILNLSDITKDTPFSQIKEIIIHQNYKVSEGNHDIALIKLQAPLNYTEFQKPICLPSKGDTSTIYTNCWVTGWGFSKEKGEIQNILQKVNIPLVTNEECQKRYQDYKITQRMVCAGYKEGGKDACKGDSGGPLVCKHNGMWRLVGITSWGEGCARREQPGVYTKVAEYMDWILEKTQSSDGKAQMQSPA
T6 sequence (P03952 20-390 partner limits assumed): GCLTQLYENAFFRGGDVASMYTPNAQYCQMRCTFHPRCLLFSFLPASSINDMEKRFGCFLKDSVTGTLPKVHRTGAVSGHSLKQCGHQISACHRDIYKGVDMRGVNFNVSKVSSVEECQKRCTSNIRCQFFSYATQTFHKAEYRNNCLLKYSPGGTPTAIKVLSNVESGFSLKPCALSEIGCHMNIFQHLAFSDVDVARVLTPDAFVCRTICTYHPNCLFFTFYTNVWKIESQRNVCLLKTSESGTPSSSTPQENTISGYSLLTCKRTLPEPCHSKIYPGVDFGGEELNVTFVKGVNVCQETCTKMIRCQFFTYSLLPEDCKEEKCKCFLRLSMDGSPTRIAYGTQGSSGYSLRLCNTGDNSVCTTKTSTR
Description: as §1, with “IC50 is that concentration of inhibitor giving 50% inhibition of substrate turnover, under the assay conditions.” left out
as §2, §4

bovine thrombin = biological target: T7, bovine thrombin (Bos taurus, UniProt P00735); experiment: Thrombin assay (S-2238 substrate); conditions: for IC50: 30 min preincubation, room temperature, tested 0.025-25 μM, Inact. = no inhibition at highest concentration; for Calculated % Selectivity Thrombin: [IC50 for Trypsin/IC50 for other enzyme]×100, lower = more trypsin selective
T7 construct: 50 μL 20 nM bovine thrombin
Description: as §1, §2
Enzyme activity was determined using as substrate, S-2238 [D-phenylalanyl-L-pipecolyl-L-arginine-p-nitroanilide dihydrochloride], purchased from Kabi Diagnostica. The substrate was made up in deionized water prior to use.
The assay was run by combining in appropriate wells 50 μL TBS and 50 μL inhibitor in TBS or TBS alone and 50 μL 20 nM bovine thrombin (or TBS as background control), incubating this mixture for 30 minutes at room temperature, adding 50 μL 1 mM S-2238, incubating for an additional 30 minutes at room temperature, then reading the absorbance of the wells at 405 nm on a microtiter plate reader set with background substraction at 650 nm.

human Factor Xa = biological target: T8, human Factor Xa (Homo sapiens, UniProt P00742); experiment: Factor Xa assay (Pefachrome Xa substrate); conditions: for Calculated % Selectivity Xa: [IC50 for Trypsin/IC50 for other enzyme]×100, lower = more trypsin selective
T8 construct: 50 μL 30 nM human Factor Xa
T8 sequence (P00742 235-488 limits assumed): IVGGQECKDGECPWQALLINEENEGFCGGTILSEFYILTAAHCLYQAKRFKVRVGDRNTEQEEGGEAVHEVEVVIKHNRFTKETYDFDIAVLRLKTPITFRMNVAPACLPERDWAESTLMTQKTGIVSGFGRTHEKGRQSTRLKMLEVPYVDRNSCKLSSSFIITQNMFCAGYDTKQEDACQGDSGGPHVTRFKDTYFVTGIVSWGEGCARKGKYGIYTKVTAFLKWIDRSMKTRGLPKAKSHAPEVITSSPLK
T8 sequence (P00742 41-179 partner limits assumed): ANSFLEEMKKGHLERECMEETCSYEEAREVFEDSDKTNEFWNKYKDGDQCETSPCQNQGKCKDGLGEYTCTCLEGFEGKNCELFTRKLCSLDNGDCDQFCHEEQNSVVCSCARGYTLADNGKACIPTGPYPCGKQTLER
Description: as §1, with “IC50 is that concentration of inhibitor giving 50% inhibition of substrate turnover, under the assay conditions.” left out
as §2
Enzyme activity was determined using as substrate, Pefachrome Xa [N-methoxycarbonyl-D-cyclohexylalanyl-L-glycyl-L-arginine p-niroanilide acetate], purchased from Centerchem, Inc. The substrate was made up in deionized water prior to use.

[4] = 30 min preincubation, room temperature, tested 0.025-25 μM, Inact. = no inhibition at highest concentration

T1 sequence (P08709 213-466 limits assumed): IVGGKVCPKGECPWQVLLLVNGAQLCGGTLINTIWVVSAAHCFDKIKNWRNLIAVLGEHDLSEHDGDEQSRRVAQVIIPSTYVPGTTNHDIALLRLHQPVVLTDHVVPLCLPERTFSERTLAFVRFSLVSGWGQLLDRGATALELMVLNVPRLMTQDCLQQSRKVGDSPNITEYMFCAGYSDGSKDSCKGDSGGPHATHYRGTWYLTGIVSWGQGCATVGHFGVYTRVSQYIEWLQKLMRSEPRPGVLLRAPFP
T1 sequence (P08709 61-212 partner limits assumed): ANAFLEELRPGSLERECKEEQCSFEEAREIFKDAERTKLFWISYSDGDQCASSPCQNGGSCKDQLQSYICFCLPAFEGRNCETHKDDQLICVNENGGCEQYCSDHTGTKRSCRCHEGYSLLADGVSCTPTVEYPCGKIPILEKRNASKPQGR
T1 sequence (P13726 33-295 partner): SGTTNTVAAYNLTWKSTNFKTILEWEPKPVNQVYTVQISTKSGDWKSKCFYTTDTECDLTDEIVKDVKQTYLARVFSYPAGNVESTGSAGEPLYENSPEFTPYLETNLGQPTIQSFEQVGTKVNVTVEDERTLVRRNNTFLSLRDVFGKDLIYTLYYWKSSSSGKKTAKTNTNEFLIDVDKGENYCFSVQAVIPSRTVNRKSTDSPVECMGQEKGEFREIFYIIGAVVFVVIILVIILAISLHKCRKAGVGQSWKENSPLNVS

| SMILES | IC50 (Factor VIIa:rTF complex; [4]) | Calculated % Selectivity VIIa (Factor VIIa:rTF complex) | Calculated % Selectivity tPA [1] | Ki [2] | IC50 (human urokinase) | Calculated % Selectivity UK (human urokinase) | IC50 (plasmin) | Calculated % Selectivity Plasmin (plasmin) | IC50 (human Factor XIa) | Calculated % Selectivity XIa (human Factor XIa) | IC50 (bovine trypsin) | Calculated % Selectivity Trypsin (bovine trypsin) | Calculated % Selectivity Protein C [3] | IC50 (human kallekrein) | Calculated % Selectivity Kallikrein (human kallekrein) | IC50 (bovine thrombin) | Calculated % Selectivity Thrombin (bovine thrombin) | Calculated % Selectivity Xa (human Factor Xa) | IC50 [1, 4] | IC50 [3, 4] | also measured |
| --- | --- | --- | --- | --- | --- | --- | --- | --- | --- | --- | --- | --- | --- | --- | --- | --- | --- | --- | --- | --- | --- |
| CC(C)(C)OC(=O)N[C@@H](CCC(=O)O)C(=O)N1CCC[C@H]1C(=O)N[C@H](C=O)CCCNC(=N)N [Compound 8, N-t-butyloxycarbonyl-L-Glu-L-Pro-L-argininal] (Boc-Glu-Pro-Arg-aldehyde) | > 25 µM | < 0.02% | 0% | 0.0014 µM | 9 µM | 0.07% | 0.6 µM | 1% | 4 µM | 0.15% | 0.006 µM | 100% | 0% | 6 µM | 0.10% | 14 µM | 0.04% | 0% | – | – | IC50 tPA [1, 4]: Inact.; IC50 Protein C [3, 4]: Inact.; IC50 Xa (human Factor Xa; [4]): Inact. |
| CC(C)COC(=O)NC(CC(=O)O)C(=O)N1CCCC1C(=O)NC(C=O)CCCN=C(N)N [Compound 10, N-isobutyloxycarbonyl-L-Asp-L-Pro-L-argininal] | – | 0% | < 0.1% | – | > 25 µM | < 0.1% | 1.2 µM | < 2% | 13 µM | < 0.19% | < 0.025 µM | 100% | < 0.1% | 8 µM | < 0.3% | 9 µM | < 0.28% | < 1.3% | > 25 µM | > 25 µM | IC50 VIIA (Factor VIIa:rTF complex; [4]): Inact.; IC50 (human Factor Xa; [4]): 2 µM |
| N=C(N)NCCC[C@@H](C=O)NC(=O)[C@@H]1CCCN1C(=O)[C@H](CC(=O)O)NC(=O)OC12CC3CC(CC(C3)C1)C2 [Compound 11, N-adamantyloxycarbonyl-L-AsP-L-Pro-L-argininal] | > 25 µM | < 0.1% | < 0.1% | 0.0002 µM | 19 µM | < 0.1% | 1.1 µM | < 2% | 6 µM | < 0.42% | < 0.025 µM | 100% | < 0.1% | 2 µM | < 1.3% | 10 µM | < 0.25% | < 0.83% | > 25 µM | > 25 µM | IC50 (human Factor Xa; [4]): 0.3 µM |
